According to US6794396B2, “Substituted pyridines useful for inhibiting cholesteryl ester transfer protein activity” (Pharmacia Corporation, priority 1998, dated 2004):
Where two headings read alike, the source gives them in different places.

Tests used:
CETP = biological target: T1, CETP (Homo sapiens, UniProt P11597); experiment: CETP activity in vitro: transfer of [3H]CE from HDL donor to LDL acceptor particles; format: biochemical
T1 construct: made in house; host or cells: CHO cells (serum-free conditioned medium)
T1 sequence (P11597 18-493): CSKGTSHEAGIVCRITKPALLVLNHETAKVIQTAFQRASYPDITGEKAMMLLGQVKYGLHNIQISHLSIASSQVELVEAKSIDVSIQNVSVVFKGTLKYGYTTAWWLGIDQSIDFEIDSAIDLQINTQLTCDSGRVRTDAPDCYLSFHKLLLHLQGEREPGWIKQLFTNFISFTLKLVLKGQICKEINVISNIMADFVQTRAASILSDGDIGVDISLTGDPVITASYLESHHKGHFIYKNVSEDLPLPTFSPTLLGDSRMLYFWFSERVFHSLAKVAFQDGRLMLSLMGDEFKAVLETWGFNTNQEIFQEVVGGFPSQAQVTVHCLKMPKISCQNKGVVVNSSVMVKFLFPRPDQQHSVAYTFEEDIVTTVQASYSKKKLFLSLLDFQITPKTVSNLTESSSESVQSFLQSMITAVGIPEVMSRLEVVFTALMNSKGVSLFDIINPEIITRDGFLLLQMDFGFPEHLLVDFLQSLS
In short: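 CETP from conditioned medium of CETP-transfected CHO cells incubated with [3H]CE-labelled HDL donor and LDL acceptor, pH 7.4 Tris buffer with NaCl, EDTA and 1% BSA, 2 h at 37 °C. LDL precipitated with dextran sulfate/MgCl2, filtered, and transferred radioactivity counted; IC50 reported.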

[1] = 50% inhibition of [3H]CE transfer from HDL to LDL, 2 hours at 37° C., read-out: IC50(μm)
[2] = IC50(μm), 50% inhibition of [3H]CE transfer from HDL to LDL, 2 hours at 37° C.

Structure (SMILES) | melting point [°C] | IC50 (CETP; Table 8, read-out: IC50) [µM] | also measured
COC(=O)c1c(OC(=O)N(c2ccccc2)c2ccccc2)cc(C(F)(F)F)nc1C(F)(F)F [Compound 25, Methyl 2,6-Bis(trifluoromethyl)-4-(diphenylaminocarbonyloxy)-3-pyridinecarboxylate] | 114 to 116 | – | IC50 (CETP; [1]): 40 µM
COC(=O)c1c(C(F)F)nc(C(F)(F)F)c(C(=O)Sc2cc(C(C)(C)C)cc(C(C)(C)C)c2)c1CC(C)C [Compound 151, Methyl 2-(Difluoromethyl)-5-{[(3,5-di-t-butylphenyl)thio]carbonyl}-4-(2-methylpropyl)-6-(trifluoromethyl)-3-pyridinecarboxylate] | 102.5 to 108.5 | – | IC50 (CETP; [2]): 60 µM
COC(=O)c1c(C(F)F)nc(C(F)(F)F)c(C(=O)Sc2ccc(C)cc2C)c1CC(C)C [Compound 152, Methyl 2-(Difluoromethyl)-5-{[(2,4-dimethylphenyl)thio]carbonyl}-4-(2-methylpropyl)-6-(trifluoromethyl)-3-pyridinecarboxylate] | 98.5 to 102.5 | – | IC50 (CETP; [2]): 60 µM
COC(=O)c1c(C(F)F)nc(C(F)(F)F)c(C(=O)Sc2ccccc2OC)c1CC(C)C [Compound 153, Methyl 2-(Difluoromethyl)-4-(2-methylpropyl)-5-{[(2-methoxyphenyl)thio]carbonyl}-6-(trifluoromethyl)-3-pyridinecarboxylate] | 100 to 102 | – | IC50 (CETP; [2]): 100 µM
COC(=O)c1c(C(F)F)nc(C(F)(F)F)c(C(=O)Sc2cccc(OC)c2)c1CC(C)C [Compound 154, Methyl 2-(Difluoromethyl)-4-(2-methylpropyl)-5-{[(3-methoxyphenyl)thio]carbonyl}-6-(trifluoromethyl)-3-pyridinecarboxylate] | 87 to 88.5 | – | IC50 (CETP; [2]): 100 µM
COC(=O)c1c(C(F)F)nc(C(F)(F)F)c(C(=O)Sc2ccc(C(C)(C)C)cc2C(C)(C)C)c1CC(C)C [Compound 155, Methyl 2-(Difluoromethyl)-5-{[(2,4-di-t-butylphenyl)thio]carbonyl}-4-(2-methylpropyl)-6-(trifluoromethyl)-3-pyridinecarboxylate] | 115.5 to 120.5 | – | IC50 (CETP; [1]): 50 µM
COC(=O)c1c(C(F)F)nc(C(F)(F)F)c(C(=O)Sc2ccc(C(C)(C)C)cc2)c1CC(C)C [Compound 156, Methyl 5-{[(4-t-Butylphenyl)thio]carbonyl}-2-(difluoromethyl)-4-(2-methylpropyl)-6-(trifluoromethyl)-3-pyridinecarboxylate] | 60.5 to 62.5 | – | IC50 (CETP; [1]): 100 µM
COC(=O)c1c(C(F)F)nc(C(F)(F)F)c(C(=O)Sc2ccc(C)cc2C)c1CC(C)C [Compound 158, Methyl 2-(Difluoromethyl)-5-{[(2,4-dimethyl-phenyl)thio]carbonyl}-4-(2-methylpropyl)-6-(trifluoromethyl)-3-pyridinecarboxylate] | 96 to 99 | – | IC50 (CETP; [2]): 100 µM
COC(=O)c1c(C(F)F)nc(C(F)(F)F)c(C(=O)Sc2ccc(SC)cc2)c1CC(C)C [Compound 159, Methyl 2-(Difluoromethyl)-4-(2-methylpropyl)-5-{[(4-methylthiophenyl)thio]carbonyl}-6-(trifluoromethyl)-3-pyridinecarboxylate] | 112 to 114 | – | IC50 (CETP; [2]): 80 µM
COC(=O)c1c(C(F)F)nc(C(F)(F)F)c(C(=O)Sc2ccc(C(C)C)cc2Cc2ccc(F)cc2)c1CC(C)C [Compound 160, Methyl 2-(Difluoromethyl)-4-(2-methylpropyl)-5-{[(2-(4-fluorobenzyl)-4-isopropylphenyl)thio]carbonyl}-6-(trifluoromethyl)-3-pyridinecarboxylate] | 86.5 to 91 | – | IC50 (CETP; [1]): 60 µM
COC(=O)c1c(C(F)F)nc(C(F)(F)F)c(C(=O)Sc2ccc(F)cc2Cc2ccc(F)cc2)c1CC(C)C [Compound 161, Methyl 2-(Difluoromethyl)-4-(2-methylpropyl)-5-{[(2-(4-fluorobenzyl)-4-fluorophenyl)thio]carbonyl}-6-(trifluoromethyl)-3-pyridinecarboxylate] | 105 to 107 | – | IC50 (CETP; [1]): 70 µM
COC(=O)c1c(C(F)F)nc(C(F)(F)F)c(C(=O)Oc2c(C)cc([N+](=O)[O-])cc2C)c1CC(C)C [Compound 176, 3-Methyl 5-(2,6-Dimethyl-4-nitrophenyl) 2-(Difluoromethyl)-4-(2-methylpropyl)-6-(trifluoromethyl)-3,5-pyridicarboxylate] | 96 to 97 | – | –
CCOC(=O)c1c(C(F)(F)F)nc(C(F)F)c(C(F)c2ccc(C(C)C)cc2)c1-c1ccccc1 (stereo not shown) [Compound 271] | – | 70 | –
CCOC(=O)c1c(C(F)(F)F)nc(C(F)F)c(C(O)c2ccc(Cl)cc2)c1-c1ccccc1 (stereo not shown) [Compound 272] | – | 90 | –
CC(C)c1ccc(Cc2c(C(F)F)nc(C(F)(F)F)c(C=O)c2-c2ccccc2)cc1 [Compound 274] | – | 8 | –
CC(C)c1ccc(C(O)c2c(C(F)F)nc(C(F)(F)F)c(CO)c2-c2ccccc2)cc1 (stereo not shown) [Compound 275] | – | > 100 | –

Structure (SMILES) | melting point [°C] | IC50 (CETP; Table 8, read-out: IC50) [µM] | also measured
OC(c1ccc(C(F)(F)F)cc1)c1c(C(F)F)nc(C(F)(F)F)c(COCc2ccccc2)c1-c1ccc(F)cc1 (stereo not shown) [Compound 276] | – | > 100 | –
CCOC(=O)c1c(C(F)(F)F)nc(C(F)F)c(C(O)c2ccc3ccccc3c2)c1-c1ccccc1 (stereo not shown) [Compound 278] | – | 80 | –
O=Cc1c(C(F)(F)F)nc(C(F)F)c(Cc2ccc3ccccc3c2)c1-c1ccccc1 [Compound 279] | – | 15 | –
OCc1c(C(F)(F)F)nc(C(F)F)c(C(O)c2ccc3ccccc3c2)c1-c1ccccc1 (stereo not shown) [Compound 280] | – | > 100 | –
OCc1c(C(F)F)nc(C(F)(F)F)c(COCc2ccccc2)c1-c1ccc(F)cc1 [Compound 281] | – | > 100 | –
CC(C)CC(O)c1c(C(F)F)nc(C(F)(F)F)c(C(F)c2ccc(C(F)(F)F)cc2)c1-c1ccc(F)cc1 (stereo not shown) [Compound 283] | – | 38.7 | –
C=CC(O)c1c(C(F)F)nc(C(F)(F)F)c(C(=O)c2ccc(C(F)(F)F)cc2)c1-c1ccc(F)cc1 (stereo not shown) [Compound 284] | – | 22.7 | –
O=Cc1c(C(F)F)nc(C(F)(F)F)c(C(=O)c2ccc3ccccc3c2)c1-c1ccccc1 [Compound 286] | – | 11.7 | –
CC(C)CC(O)c1c(C(F)F)nc(C(F)(F)F)c(C(=O)c2ccc(C(F)(F)F)cc2)c1-c1ccc(F)cc1 (stereo not shown) [Compound 288] | – | 19 | –
C=CC(OC(=O)c1ccccc1)c1c(C(F)F)nc(C(F)(F)F)c(C(=O)c2ccc(OCC)cc2)c1-c1ccccc1 (stereo not shown) [Compound 289] | – | 55.3 | –
O=C(c1ccc(C(F)(F)F)cc1)c1c(C(F)(F)F)nc(C(F)F)c(CO)c1-c1ccc(F)cc1 [Compound 292] | – | 16.2 | –
O=Cc1c(C(F)F)nc(C(F)(F)F)c(C(=O)c2ccc(Cl)cc2)c1-c1ccccc1 [Compound 293] | – | 10.2 | –
CCOC(=O)c1c(C(F)(F)F)nc(C(F)F)c(CN2CCCC2)c1-c1ccc(F)cc1 [Compound 294] | – | 40 | –
C=CC(O)c1c(C(F)F)nc(C(F)(F)F)c(C(=O)OC)c1CC(C)C (stereo not shown) [Compound 295] | – | – | IC50 (CETP; IC50, Table 8): > 100 µM
CCOC(=O)c1c(C(F)(F)F)nc(C(F)F)c(C(O)c2ccc(C(F)(F)F)cc2)c1-c1ccccc1 (stereo not shown) [Compound 296] | – | > 100 | –
OCc1c(C(F)(F)F)nc(C(F)F)c(CN2CCCC2)c1-c1ccccc1 [Compound 297] | – | > 100 | –
